Where a name gives a salt, the structure may show the parent alone.
How the values were obtained:
[1] = test system: CYPs; experiment: CYPs metabolic stability assay in HLM (human liver microsomes); assay type: in vitro ADME; settings: HLM 1 mg/ml protein, compound 5 μM, 60 min, 37° C.; for Control (% remain): absence of NADPH; for CYP+ (% remain): with NADPH 1 mM
Procedure: Stability of the test compounds was performed in HLM (human liver microsomes) in the presence and in the absence of NADPH.
The stability was measured using the incubation mixture (100 μl total volume) contained 1 mg/ml total protein, MgCl2 5 mM and 50 mM K-phosphate buffer. Samples were incubated in the presence and in the absence of NADPH 1 mM. Reactions were pre-incubated 5 min and the reaction initiated with the compound under test (at a concentration of 5 μM). Samples were incubated for 60 min in a shaking water bath at 37° C. The reaction was stopped by adding 100 μl of acetonitrile. Samples were then centrifuged, filtered and supematant injected in HLPC-MSD. Test compounds were dissolved in DMSO and the final concentration of DMSO in the reaction was below 0.5% (v/v). At T0 acetonitrile was added before adding the compound. All experiments were performed with samples in duplicate.

[2] = target: T1, FAAH (Mus musculus, UniProt O08914); experiment: In vitro/ex vivo FAAH activity determination in brain after intra-tracheal instillation; design: Liver and brain fragments were removed and processed for enzymatic activity determination; from tissue; species or system male NMRI mice; settings: remaining enzymatic activity vs controls
T1 sequence (O08914 1-579): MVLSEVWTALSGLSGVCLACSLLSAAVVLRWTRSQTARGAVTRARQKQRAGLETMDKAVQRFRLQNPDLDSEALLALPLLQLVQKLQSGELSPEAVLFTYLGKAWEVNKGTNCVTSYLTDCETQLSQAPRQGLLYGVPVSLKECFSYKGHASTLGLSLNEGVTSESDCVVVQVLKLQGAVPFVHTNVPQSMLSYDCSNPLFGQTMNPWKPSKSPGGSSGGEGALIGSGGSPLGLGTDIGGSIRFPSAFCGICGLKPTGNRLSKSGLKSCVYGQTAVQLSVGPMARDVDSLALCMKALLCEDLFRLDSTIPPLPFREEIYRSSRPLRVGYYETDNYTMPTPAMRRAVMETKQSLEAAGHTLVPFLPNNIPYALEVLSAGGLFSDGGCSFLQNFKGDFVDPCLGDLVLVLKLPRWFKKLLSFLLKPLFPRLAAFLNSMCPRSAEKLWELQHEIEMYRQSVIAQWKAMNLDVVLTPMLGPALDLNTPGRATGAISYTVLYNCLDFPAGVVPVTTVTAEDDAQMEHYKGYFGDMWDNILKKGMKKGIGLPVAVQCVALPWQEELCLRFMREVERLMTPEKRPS
Procedure: (§1) To evaluate the selectivity of test compounds in inhibiting FAAH activity, male NMRI mice were administrated following instillation with 1 mg/kg compound and were sacrificed after 8 h treatment. Liver and brain fragments were removed and processed for enzymatic activity determination.
(§2) FAAH activity was measured as the amount of ^3H-ethanolamine formed, by liquid scintillation counting, from the hydrolysis of the substrate anandamide (AEA, labeled with ^3H on the ethanolamine part of the molecule). The percentage of remaining enzymatic activity was calculated in respect to controls and after blank subtraction. Therefore, a low value for the test compounds indicates a strong inhibitor.
(§3) Male NMRI mice (body weight range: 25-35 g) were obtained from Harlan Laboratories (Barcelona, Spain). Animals were kept 10 per cage, under controlled environmental conditions (12 hr light [8 am]/12 hr dark [8 pm]cycle; room temperature 22±1° C.). Food and tap water were allowed ad libitum. Animals were habituated to the animal facilities at least for a week prior to experiments. The experiments were all carried out during daylight hours.
(§4) Animals were fasted overnight before administration of compounds. […] After administration the animals were given atipamezole (1 mg/kg) to reverse the sedative and analgesic effects induced by the anaesthesia.
(§5) Fifteen minutes before sacrifice, animals were anesthetized with pentobarbital 60 mg/kg administrated intra-peritoneally. The brain (without cerebellum) and a fragment of liver were collected into plastic vials containing membrane buffer (3 mM MgCl2, 1 mM EDTA, 50 mM Tris HCl, pH 7.4). Glass beads (2.5 mm BioSpec Products, Bartlesville, Okla., USA) were added to the vials containing the brain and liver tissues. Tissues were stored at −20° C. until analysis.
(§6) Anandamide [ethanolamine-1-^3H-] was obtained from American Radiochemicals—with a specific activity of 60 Ci/mmol. All other reagents were obtained from Sigma-Aldrich. Optiphase Supermix was obtained from Perkin Elmer.
(§7) Brain and liver tissues were thawed and homogenized in 10 volumes of membrane buffer (3 mM MgCl2, 1 mM EDTA, 50 mM Tris HCl, pH 7.4) with homogenizer Precellys 24 Dual Tissue Homogenizer (Bertin Technologies) for 2 cycles of 5 sec (5000 rpm).
(§8) Total protein in the tissue homogenates was determined with the BioRad Protein Assay (BioRad) using a standard curve of BSA ([…]). Tissue homogenates were diluted to appropriate concentration for enzymatic determination in assay buffer (1 mM EDTA, 10 mM Tris HCl, pH 7.6).
(§9) Reaction mix (total volume 200 μL) contained 2 μM AEA (2 μM AEA+5 nM ^3H-AEA), 0.1% fatty acid free BSA, 15 μg (brain) or 5 μg (liver) protein, in assay buffer (1 mM EDTA, 10 mM Tris pH 7.6).
(§10) The test compound was used at a level of 1 mg/kg protein. After 15 minutes pre-incubation at 37° C. of the protein sample, reaction was started by the addition of the substrate solution (cold AEA+radiolabelled AEA+BSA). Reaction was carried out for 12 minutes for brain and liver tissues. Reaction was terminated by addition of 400 μL chloroform:methanol (1:1, v/v) solution. Reaction samples were vortex twice, left on ice for 5 minutes and then centrifuged in the microfuge for 7 minutes, 7000 rpm. 200 μL of the obtained supernatants were added to […] Optiphase Supermix scintillation cocktail previously distributed in 24-well plates.
(§11) Counts per minute (cpm) were determined in a Microbeta TriLux scintillation counter. In each assay blank samples (without protein) were prepared.

[3] = target: T1, FAAH; experiment: In vitro/ex vivo FAAH activity determination in liver after intra-tracheal instillation; design: Liver and brain fragments were removed and processed for enzymatic activity determination; from tissue; host or cells: mouse liver fragment homogenate; species or system male NMRI mice; settings: remaining enzymatic activity vs controls
Procedure: as §1, §2, §3, §4, §5, §6, §7, §8, §9, §10, §11

[4] = 1 mg/kg intra-tracheal instillation, sacrificed after 8 h, hydrochloride, 1 mg/kg
[5] = 1 mg/kg intra-tracheal instillation, sacrificed after 8 h
[6] = tested at 0.1 mg/kg rather than 1 mg/kg

Control (% remain) ([1]; hydrochloride)	CYP+ (% remain) ([1]; hydrochloride)	FAAH Activity - Brain itc (% C) [2, 4]	FAAH Activity - Liver itc (% C) [3, 4]	Control (% remain) [1]	CYP+ (% remain) [1]	FAAH Activity - Brain itc (% C) [2, 5]	FAAH Activity - Liver itc (% C) [3, 5]	FAAH Activity - Brain itc (% C) [2, 6]	FAAH Activity - Liver itc (% C) [3, 6]	Structure (SMILES)
93.2 % remain	25.2 % remain	97.6 % C	5.4 % C							COc1cc(CN2CCC(N(C)C(=O)n3cnc(-c4ccc(OS(N)(=O)=O)cc4)c3)CC2)cc(OC)c1 [Example 8, 4-(1-((1-(3,5-dimethoxybenzyl)piperidin-4-yl)(methyl)carbamoyl)-1H-imidazol-4-yl)phenyl sulfamate hydrochloride]
				100.0 % remain	5.9 % remain	84.2 % C	4.4 % C			COc1cccc(CN2CCC(N(C)C(=O)n3cnc(-c4cccc(OS(N)(=O)=O)c4)c3)CC2)c1.Cl [Example 11, 3-(1-((1-(3-methoxybenzyl)piperidin-4-yl)(methyl)carbamoyl)-1H-imidazol-4-yl)phenyl sulfamate hydrochloride]
				100 % remain	11.2 % remain	98.7 % C	7.2 % C			COc1cccc(CN2CCC(N(C)C(=O)n3cnc(-c4cccc(NS(C)(=O)=O)c4)c3)CC2)c1 [Example 4, N-(1-(3-methoxybenzyl)piperidin-4-yl)-N-methyl-4-(3-(methylsulfonamido)phenyl)-1H-imidazole-1-carboxamide hydrochloride]
				92.6 % remain	65.0 % remain	87.2 % C	3.5 % C			CN(C(=O)n1cnc(-c2cccc(OS(N)(=O)=O)c2)c1)C1CCN(Cc2ccccc2)CC1 [Example 7, 3-(1-((1-benzylpiperidin-4-yl)(methyl)carbamoyl)-1H-imidazol-4-yl)phenyl sulfamate hydrochloride]
				111.7 % remain	18.5 % remain			87.7 % C	13.1 % C	COc1cc(CN2CCC(N(C)C(=O)n3cnc(-c4cccc(C(N)=O)c4)c3)CC2)ccc1F [Example 31, 4-(3-carbamoylphenyl)-N-(1-(4-fluoro-3-methoxybenzyl)piperidin-4-yl)-N-methyl-1H-imidazole-1-carboxamide hydrochloride]
				97.8 % remain	64.8 % remain	107.1 % C	13.7 % C			CN(C(=O)n1cnc(-c2cccc(OS(N)(=O)=O)c2)c1)C1CCN(Cc2ccc3c(c2)OCO3)CC1 [Example 30, 3-(1-((1-(benzo[d][1,3]dioxol-5-ylmethyl)piperidin-4-yl)(methyl)carbamoyl)-1H-imidazol-4-yl)phenyl sulfamate hydrochloride]
				115.2 % remain	14.2 % remain			96.0 % C	12.8 % C	COc1ccc(F)c(CN2CCC(N(C)C(=O)n3cnc(-c4cccc(C(N)=O)c4)c3)CC2)c1 [Example 32, 4-(3-carbamoylphenyl)-N-(1-(2-fluoro-5-methoxybenzyl)piperidin-4-yl)-N-methyl-1H-imidazole-1-carboxamide hydrochloride]
				100.9 % remain	68.6 % remain	89.3 % C	6.0 % C			COc1cccc(CN2CCC(N(C)C(=O)n3cnc(-c4ccc(OS(N)(=O)=O)cc4)c3)CC2)c1 [Example 14, 4-(1-((1-(3-methoxybenzyl)piperidin-4-yl)(methyl)carbamoyl)-1H-imidazol-4-yl)phenyl sulfamate hydrochloride]
				97.6 % remain	76.8 % remain	93.3 % C	3.4 % C			CN(C(=O)n1cnc(-c2cccc(NC(N)=O)c2)c1)C1CCN(Cc2ccc3c(c2)OCO3)CC1.Cl [Example 18, N-(1-(benzo[d][1,3]dioxol-5-ylmethyl)piperidin-4-yl)-N-methyl-4-(3-ureidophenyl)-1H-imidazole-1-carboxamide hydrochloride]
				111.4 % remain	30.2 % remain	79.0 % C	3.2 % C			CN(C(=O)n1cnc(-c2cccc(NS(C)(=O)=O)c2)c1)C1CCN(Cc2ccccc2)CC1 [Example 1, N-(1-benzylpiperidin-4-yl)-N-methyl-4-(3-(methylsulfonamido)phenyl)-1H-imidazole-1-carboxamide hydrochloride]
		96.9 % C	4.5 % C	101.4 % remain	17.0 % remain					CN(C(=O)n1cnc(-c2cccc(NC(N)=O)c2)c1)C1CCN(Cc2ccccc2)CC1 [Example 16, N-(1-benzylpiperidin-4-yl)-N-methyl-4-(3-ureidophenyl)-1H-imidazole-1-carboxamide hydrochloride]
				98.3 % remain	68.6 % remain	86.8 % C	5.1 % C			CN(C(=O)n1cnc(-c2cccc(NS(N)(=O)=O)c2)c1)C1CCN(Cc2ccccc2)CC1 [Example 2, N-(1-benzylpiperidin-4-yl)-N-methyl-4-(3-(sulfamoylamino)phenyl)-1H-imidazole-1-carboxamide hydrochloride]

— patent publication US20160166560A1, “Urea Compounds and Their Use as FAAH Enzyme Inhibitors” (BIAL-PORTELA & Cª, S.A., priority 2013, published 2016)
